*1 amine or outer side, *2 acyl side, *3 side chain or, on linkers, in order; H or OH if unused. [ ]: non-standard residue; d: D form. The star is where a group is joined. d(βAsp) = O=C(O)[C@@H](CC(=O)[*:2])N[*:1]; βAsp = O=C(O)[C@H](CC(=O)[*:2])N[*:1]; OBn = c1ccc(CO*)cc1
Tests used:
BxPC3 cells = assay: Colorimetric assay of lactate secretion by BxPC3 cells (expressing LDH-B); format: cell-based, human; conditions: BxPC3, 80 μM peptide with Lipofectamine 2000 (0.5% v/v), 1% DMSO, Krebs-Ringer buffer, 4 h, 37°C, n = 3
Excerpt: Having identified peptides able to interfere with the assembly of monomeric LDH‐A into catalytically active tetramer, we considered of interest to test the action of peptides against LDH‐A expressed in human cell lines. In particular, we analyzed the lactate secreted by cultured human cells exposed or not to the peptides better performing as inhibitors of LDH‐A in vitro, that is, TH1, TH2, and TH16. Moreover, we used two different cell lines exclusively expressing LDH‐A or LDH‐B, that is, MCF7 and BxPC3, respectively. In MCF7 cells, the [mRNALDH‐A]/[mRNALDH‐B] ratio is indeed equal to ca. 150 (Figure 9a), whereas in BxPC3 cells the messenger coding for LDH‐A was not detected (Figure 9a). Therefore, by comparing the decrease, if any, of the lactate concentration secreted by these two cell lines the selectivity of peptides acting against LDH‐A or LDH‐B can be conveniently estimated. When the MCF7 cell line is considered, the linear TH16 and the cyclic TH2 tetrapeptide performed equally, being both responsible for a concentration of secreted lactate 20% lower than that detected in their absence (Figure 9b). […] It should indeed be noted that the assays with cells were performed in the presence of lipofectamine (see Section 5). […] Accordingly, it seems likely that lipofectamine is effective in assisting the penetration of the TH16 and TH2 peptides into cells, with this action of lipofectamine being much weaker when dealing with a larger molecule, that is, an octapeptide.
To evaluate the competence of peptides in inhibiting the action of LDH‐A in cultured cells, two human cell cultures were used: MCF7 and BxPC3, isolated from breast and pancreatic adenocarcinoma, respectively. […]
The competence of peptides in inhibiting LDH in cultured cells was tested by assessing the concentration of lactate released by MCF7 and BxPC3 cell cultures. […] The concentration of lactate released in the Krebs–Ringer buffer was determined after 4 h of incubation at 37°C, using the colorimetric assay previously reported (Rossi et al., [2023]). […]

monomeric human LDH‐A [1] = target: T1, monomeric human LDH‐A (Homo sapiens, UniProt P00338); assay: Inhibition by peptides of LDH-A activity gained on assembly of monomeric LDH-A into tetramer; format: biochemical; conditions: 80 μM peptide incubated 5 min with 6.2 nM monomeric LDH-A, 10 mM Tris-HCl + 10 mM BisTris pH 7.5, started with 125 μM β-NADH and 500 μM pyruvate, 25°C, A340, vs control with 1% DMSO, mean ± SD, n = 3
T1 construct: made in house; host or cells: E. coli BL21(DE3), pET9a (NdeI/BamHI)
Procedure: (§1) In particular, all the peptides were tested at 80 μM (final concentration), and the LDH activity detected in their presence was compared with the catalytic action observed with control samples devoid of any peptide. First, we decided to assay the octameric peptide TH1, the primary structure of which ([…]) is identical to the LDH‐A region spanning residues 295–302. […] Indeed, the catalytic action exerted by 6 nM tetrameric LDH‐A (in 10 mM Tris–HCl, pH 7.5, containing 150 mM NaCl) was determined as equal to 433 ± 11 and 452 ± 19 nM/s in the absence and in the presence of 80 μM TH1 octapeptide, respectively. Overall, this insensitivity along with the significant effect elicited by TH1 on monomeric LDH‐A indicate that the octapeptide inhibits the assembly of LDH‐A monomers into the corresponding, catalytically active, tetramer. To dissect the inhibition triggered by TH1 on monomeric LDH‐A, we decided to evaluate: (i) whether or not the two halves of the octapeptide, that is, GQNG and ISDL, are equally competent in inhibiting LDH‐A; (ii) the action of linear and cyclic peptides, containing or not D amino acids; and (iii) the effect, if any, triggered by the presence of protecting groups in the peptides to be assayed. It should be noted that to allow the cyclization of tetrapeptide GQNG while maintaining a terminal carboxylic group, the sequence was modified to GQND, while for the cyclization of ISDL while maintaining a terminal amino group, the sequence was modified into KSDL (Table 1).
FIGURE 8 Inhibition exerted by linear and cyclic peptides on LDH‐A activity detected in vitro. […] The gray bars (in “a” and “d”) represent the activity observed in the presence of the same volume of DMSO (1%, v/v) carried to the assay mixtures by the peptides to be tested. (a–c) The effect, if any, of tetrameric peptides featuring the GQND primary structure (see also Table 1) on LDH‐A activity is shown. The inhibition exerted by the octameric peptide TH1 is also reported in “a.” The enzyme activity observed in the presence of linear or cyclic peptides is shown in “b” and “c”, respectively. (d) Extent of LDH‐A activity detected in the presence of linear or cyclic tetrapeptides featuring the KSDL primary structure. Error bars represent SD (n = 3). The experimental observations were compared by Student's t‐test. The ***, **, and * symbols denote p values lower than 0.001, 0.01, and […], respectively. (e) Simulation of the association between the TH2 peptide and monomeric LDH‐A. Predicted interactions between the cyclopeptide c[GQN‐isoD] (TH2) and the N‐terminal sequence Y^9[…]^19, as simulated by molecular dynamics in a box of explicit TIP3P water molecules; gray and red dotted lines represent hydrogen bonds and salt bridges, respectively.
All the assays were performed at 25°C using a Cary 300 Bio spectrophotometer.

MCF7 cells = assay: Colorimetric assay of lactate secretion by MCF7 cells (expressing LDH-A); format: cell-based, human; conditions: for decrease of the concentration of secreted lactate: MCF7, 80 μM peptide with Lipofectamine 2000 (0.5% v/v), 1% DMSO, Krebs-Ringer buffer, 4 h, 37°C, colorimetric, n = 3, vs cells without peptide; for effect on lactate production in the absence of lipofectamine: MCF7, peptide without lipofectamine
Excerpt: Having identified peptides able to interfere with the assembly of monomeric LDH‐A into catalytically active tetramer, we considered of interest to test the action of peptides against LDH‐A expressed in human cell lines. In particular, we analyzed the lactate secreted by cultured human cells exposed or not to the peptides better performing as inhibitors of LDH‐A in vitro, that is, TH1, TH2, and TH16. Moreover, we used two different cell lines exclusively expressing LDH‐A or LDH‐B, that is, MCF7 and BxPC3, respectively. In MCF7 cells, the [mRNALDH‐A]/[mRNALDH‐B] ratio is indeed equal to ca. 150 (Figure 9a), whereas in BxPC3 cells the messenger coding for LDH‐A was not detected (Figure 9a). Therefore, by comparing the decrease, if any, of the lactate concentration secreted by these two cell lines the selectivity of peptides acting against LDH‐A or LDH‐B can be conveniently estimated. When the MCF7 cell line is considered, the linear TH16 and the cyclic TH2 tetrapeptide performed equally, being both responsible for a concentration of secreted lactate 20% lower than that detected in their absence (Figure 9b). […] Accordingly, it seems likely that lipofectamine is effective in assisting the penetration of the TH16 and TH2 peptides into cells, with this action of lipofectamine being much weaker when dealing with a larger molecule, that is, an octapeptide.
To evaluate the competence of peptides in inhibiting the action of LDH‐A in cultured cells, two human cell cultures were used: MCF7 and BxPC3, isolated from breast and pancreatic adenocarcinoma, respectively. Cultures were grown in DMEM (MCF7) or RPMI medium (BxPC3), supplemented with 100 U/ml penicillin/streptomycin, 2 mM glutamine and 10% (v/v) FBS. All the components of the media used for cell culture were obtained from Merck‐Millipore.
The competence of peptides in inhibiting LDH in cultured cells was tested by assessing the concentration of lactate released by MCF7 and BxPC3 cell cultures. To this aim, cells were seeded in duplicate in 24‐wells plates (2 × 10^5/well) and let to adhere overnight; the culture medium was then replaced by Krebs‐Ringer buffer (300 μl/well). Stock solutions of peptides (8 mM in DMSO) were diluted in Krebs‐Ringer buffer to a final concentration of 640 μM and mixed with an equal volume of 4% (v/v, in Krebs‐Ringer buffer) Lipofectamine 2000 (Invitrogen). The final solution was thoroughly mixed, kept for 25 min at room temperature, and finally 100 μl were added to each plate well, obtaining a final peptide concentration equal to 80 μM. The concentration of lactate released in the Krebs–Ringer buffer was determined after 4 h of incubation at 37°C, using the colorimetric assay previously reported (Rossi et al., [2023]). Each experiment was performed in triplicate and included control samples consisting of untreated cell cultures exposed to the same final concentration of DMSO (1%, v/v) and Lipofectamine (0.5%, v/v) to which were exposed the samples treated with peptides.

tetrameric LDH‐A [2] = target: T2, tetrameric LDH‐A (Homo sapiens, UniProt P00338); assay: Activity assay of tetrameric LDH-A in the presence of peptide; format: biochemical; conditions: 6 nM tetrameric LDH-A, 10 mM Tris-HCl pH 7.5, 150 mM NaCl, 80 μM peptide
T2 construct: made in house; host or cells: E. coli BL21(DE3), pET9a (NdeI/BamHI)
Procedure: as §1, with “It should be noted that to allow the cyclization of tetrapeptide GQNG while maintaining a terminal carboxylic group, the sequence was modified to GQND, while for the cyclization of ISDL while maintaining a terminal amino group, the sequence was modified into KSDL (Table 1).” left out

monomeric human LDH‐A [3] = target: T1, monomeric human LDH‐A; assay: Steady-state kinetics of pyruvate reduction by monomeric LDH-A (assembled monomers); format: biochemical; conditions: variable β-NADH, 500 μM pyruvate, 7.6 nM monomer, pH 7.5, 25°C
Procedure: (§2) To further characterize the catalytic action of monomeric LDH-A exposed to β-NADH and pyruvate, and therefore assembled into tetramer (cf. […] In addition, the kinetics of pyruvate reduction catalyzed by tetrameric LDH-A was assayed under the same conditions used for the monomeric enzyme. Structurally and functionally speaking, the availability of monomeric LDH-A does indeed provide an unprecedented and quite interesting tool to perform quantitative tests of the assembly of monomers into the corresponding catalytically active tetramer. […] In addition to this, the enzyme kinetic parameters were also determined testing reaction velocity as a function of β-NADH concentration, in the presence of 500 μM pyruvate. […] The continuous lines represent the best fit of the Michaelis-Menten equation to the experimental observations. […] The continuous lines represent the best fit of the Michaelis-Menten equation to the experimental observations. (c) Kinetic parameters determined by performing activity assays using monomeric or tetrameric LDH-A, at the indicated final concentrations. Under conditions of variable pyruvate concentration, β-NADH was always used at 125 μM. When reaction mixtures contained variable concentrations of the redox cofactor, pyruvate was invariably added at 500 μM. All the assays were performed at pH 7.5 (Tris-BisTris, 10 mM each.

tetrameric LDH‐A [4] = target: T2, tetrameric LDH‐A; assay: Steady-state kinetics of pyruvate reduction by tetrameric LDH-A; format: biochemical; conditions: variable β-NADH, 500 μM pyruvate, 1.9 nM tetramer, pH 7.5, 25°C
Procedure: as §2

H‐Gly‐Gln‐Asn‐Asp‐OH [TH16]
effect on lactate secretion (BxPC3 cells): no significant differences | Inhibition (%) of LDH‐A activity (monomeric human LDH‐A [1]): 22 ± 2% | decrease of the concentration of secreted lactate (MCF7 cells): 20% | effect on lactate production in the absence of lipofectamine (MCF7 cells): negligible and not significant effects

cyclo(GQN[βAsp]) (SMILES NC(=O)CC[C@@H]1NC(=O)CNC(=O)C[C@@H](C(=O)O)NC(=O)[C@H](CC(N)=O)NC1=O) [TH2]
effect on lactate secretion (BxPC3 cells): no significant differences | Inhibition (%) of LDH‐A activity (monomeric human LDH‐A [1]): 31 ± 3% | decrease of the concentration of secreted lactate (MCF7 cells): 20% | effect on lactate production in the absence of lipofectamine (MCF7 cells): negligible and not significant effects

H-GQNGISDL-OH [TH1]
effect on lactate secretion (BxPC3 cells): did not induce any significant effect | Inhibition (%) of LDH‐A activity (monomeric human LDH‐A [1]): 36 ± 1% | decrease of the concentration of secreted lactate (MCF7 cells): did not induce any significant effect | inhibition of tetrameric LDH‐A activity (in words) (tetrameric LDH‐A [2]): no significant inhibition | catalytic action exerted by tetrameric LDH‐A in the presence of peptide (tetrameric LDH‐A [2]; without peptide 433 ± 11 nM/s): 452 ± 19 nM/s

H-GQND-OBn (SMILES NCC(=O)N[C@@H](CCC(N)=O)C(=O)N[C@@H](CC(N)=O)C(=O)N[C@@H](CC(=O)O)C(=O)OCc1ccccc1) [TH6]
Inhibition (%) of LDH‐A activity (monomeric human LDH‐A [1]): 14 ± 7%

c[isoLys‐Ser‐Asp‐Leu] (sidechain bridge or staple) [TH4]
Inhibition (%) of LDH‐A activity (monomeric human LDH‐A [1]): 16 ± 3%

cyclo(GQN[d(βAsp)]) (SMILES NC(=O)CC[C@@H]1NC(=O)CNC(=O)C[C@H](C(=O)O)NC(=O)[C@H](CC(N)=O)NC1=O) [TH3]
Inhibition (%) of LDH‐A activity (monomeric human LDH‐A [1]): 26 ± 1%

cyclo(GQND(OBn)) (SMILES NC(=O)CC[C@@H]1NC(=O)CNC(=O)[C@H](CC(=O)OCc2ccccc2)NC(=O)[C@H](CC(N)=O)NC1=O) [TH15]
Inhibition (%) of LDH‐A activity (monomeric human LDH‐A [1]): 9 ± 2%

c[isoLys‐Ser‐Asp‐D‐Leu] (sidechain bridge or staple) [TH5]
Inhibition (%) of LDH‐A activity (monomeric human LDH‐A [1]): 7 ± 3%

c[Gly‐Gln‐Asn‐D‐isoAsp(OBn)] (head to tail) [TH11]
Inhibition (%) of LDH‐A activity (monomeric human LDH‐A [1]): 8 ± 4%

H‐Lys‐Ser‐Asp‐Leu‐OH [TH18]
Inhibition (%) of LDH‐A activity (monomeric human LDH‐A [1]): 5 ± 6%

H-GQND(OBn)-OH (SMILES NCC(=O)N[C@@H](CCC(N)=O)C(=O)N[C@@H](CC(N)=O)C(=O)N[C@@H](CC(=O)OCc1ccccc1)C(=O)O) [TH14]
Inhibition (%) of LDH‐A activity (monomeric human LDH‐A [1]): 15 ± 4%

H-KSD[dL]-OH (SMILES CC(C)C[C@@H](NC(=O)[C@H](CC(=O)O)NC(=O)[C@H](CO)NC(=O)[C@@H](N)CCCCN)C(=O)O) [TH19]
Inhibition (%) of LDH‐A activity (monomeric human LDH‐A [1]): 4 ± 3%

c[Gly‐Gln‐Asn‐isoAsp(OBn)] (head to tail) [TH10]
Inhibition (%) of LDH‐A activity (monomeric human LDH‐A [1]): 6 ± 3%

β‐NADH
K m for β‐NADH, monomeric LDH‐A (assembled monomers) (monomeric human LDH‐A [3]): 7.7 ± 1.1 µM | K m for β‐NADH, tetrameric LDH‐A (tetrameric LDH‐A [4]): 9.0 ± 0.6 µM
